One experiment addresses D(1A) dopamine receptor (Homo sapiens, UniProt P21728). The format is functional, cell-based.
In experiment [1] the target is Epidermal growth factor receptor (Homo sapiens, UniProt P00533). In kind it is functional.
Experiment [2] has as its target Receptor tyrosine-protein kinase erbB-2 (Homo sapiens, UniProt P04626). In kind it is functional.
In a further experiment the target is T1, Estrogen receptor (Homo sapiens, UniProt P03372).
T1 sequence (P03372 whole entry): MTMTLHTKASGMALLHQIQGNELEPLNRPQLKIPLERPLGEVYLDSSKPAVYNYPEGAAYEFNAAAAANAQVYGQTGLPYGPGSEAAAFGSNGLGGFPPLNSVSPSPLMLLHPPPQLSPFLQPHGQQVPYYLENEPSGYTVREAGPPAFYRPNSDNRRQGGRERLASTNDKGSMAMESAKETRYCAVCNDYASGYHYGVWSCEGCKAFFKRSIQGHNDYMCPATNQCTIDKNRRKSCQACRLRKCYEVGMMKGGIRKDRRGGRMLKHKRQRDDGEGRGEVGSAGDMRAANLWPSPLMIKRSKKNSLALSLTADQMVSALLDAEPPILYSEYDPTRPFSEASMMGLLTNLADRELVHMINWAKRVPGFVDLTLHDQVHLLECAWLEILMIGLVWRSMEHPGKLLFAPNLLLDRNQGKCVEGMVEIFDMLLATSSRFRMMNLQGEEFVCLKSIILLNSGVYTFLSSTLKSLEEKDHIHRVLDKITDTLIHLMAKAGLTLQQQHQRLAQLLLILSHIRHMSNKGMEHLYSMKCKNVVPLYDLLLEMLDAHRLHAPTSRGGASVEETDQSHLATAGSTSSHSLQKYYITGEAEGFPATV
In kind it is functional.

Experiment [3] concerns the target T2, Glucocorticoid receptor (Homo sapiens, UniProt P04150).
T2 sequence (P04150 whole entry): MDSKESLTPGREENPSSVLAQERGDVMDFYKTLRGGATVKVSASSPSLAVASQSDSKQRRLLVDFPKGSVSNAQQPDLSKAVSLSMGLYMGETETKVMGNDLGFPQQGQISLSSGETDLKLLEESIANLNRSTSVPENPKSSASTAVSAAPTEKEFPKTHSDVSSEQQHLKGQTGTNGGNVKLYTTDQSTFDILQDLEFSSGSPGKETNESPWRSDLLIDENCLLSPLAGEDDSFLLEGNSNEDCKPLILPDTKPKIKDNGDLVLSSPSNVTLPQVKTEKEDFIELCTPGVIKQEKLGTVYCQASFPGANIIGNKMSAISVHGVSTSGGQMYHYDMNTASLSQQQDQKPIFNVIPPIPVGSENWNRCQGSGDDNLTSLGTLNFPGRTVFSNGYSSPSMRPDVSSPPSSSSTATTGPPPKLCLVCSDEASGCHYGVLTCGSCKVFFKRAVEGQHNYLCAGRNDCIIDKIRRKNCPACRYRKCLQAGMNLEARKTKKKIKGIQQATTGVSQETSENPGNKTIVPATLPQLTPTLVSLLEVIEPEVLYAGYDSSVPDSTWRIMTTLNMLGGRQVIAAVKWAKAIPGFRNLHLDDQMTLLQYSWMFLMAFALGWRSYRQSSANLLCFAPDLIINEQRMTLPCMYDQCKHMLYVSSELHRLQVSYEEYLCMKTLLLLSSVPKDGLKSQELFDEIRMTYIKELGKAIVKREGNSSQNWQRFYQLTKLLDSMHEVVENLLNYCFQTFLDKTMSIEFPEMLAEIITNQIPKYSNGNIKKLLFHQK
In kind it is functional.

In experiment [4] the target is T2, Glucocorticoid receptor. The format is functional. The source holds these as a separate data set.
Experiment [5] concerns the target Sodium channel protein type 5 subunit alpha (Homo sapiens, UniProt Q14524). The format is functional, cell-based.
In a further experiment the target is Acetylcholinesterase (Homo sapiens, UniProt P22303). The format is functional.
Chain of Acetylcholinesterase (P22303 whole entry): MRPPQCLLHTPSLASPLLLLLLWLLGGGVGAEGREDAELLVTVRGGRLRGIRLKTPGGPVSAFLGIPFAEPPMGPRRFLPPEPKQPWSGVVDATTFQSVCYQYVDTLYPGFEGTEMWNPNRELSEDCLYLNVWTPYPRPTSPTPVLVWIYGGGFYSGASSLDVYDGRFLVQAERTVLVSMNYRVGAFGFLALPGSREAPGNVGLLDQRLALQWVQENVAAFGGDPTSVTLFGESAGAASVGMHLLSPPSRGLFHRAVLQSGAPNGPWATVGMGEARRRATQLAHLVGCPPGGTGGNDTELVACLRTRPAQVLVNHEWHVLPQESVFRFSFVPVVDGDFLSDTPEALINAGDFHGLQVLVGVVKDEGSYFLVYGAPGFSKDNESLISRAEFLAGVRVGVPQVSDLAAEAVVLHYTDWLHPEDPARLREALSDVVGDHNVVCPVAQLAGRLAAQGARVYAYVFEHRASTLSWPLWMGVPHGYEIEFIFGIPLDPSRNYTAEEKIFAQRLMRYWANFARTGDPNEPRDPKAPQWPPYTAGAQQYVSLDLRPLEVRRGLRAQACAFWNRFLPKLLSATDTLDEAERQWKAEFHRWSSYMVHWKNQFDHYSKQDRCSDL
Note: assay procedure not described here.

Chain of D(1A) dopamine receptor (P21728 whole entry): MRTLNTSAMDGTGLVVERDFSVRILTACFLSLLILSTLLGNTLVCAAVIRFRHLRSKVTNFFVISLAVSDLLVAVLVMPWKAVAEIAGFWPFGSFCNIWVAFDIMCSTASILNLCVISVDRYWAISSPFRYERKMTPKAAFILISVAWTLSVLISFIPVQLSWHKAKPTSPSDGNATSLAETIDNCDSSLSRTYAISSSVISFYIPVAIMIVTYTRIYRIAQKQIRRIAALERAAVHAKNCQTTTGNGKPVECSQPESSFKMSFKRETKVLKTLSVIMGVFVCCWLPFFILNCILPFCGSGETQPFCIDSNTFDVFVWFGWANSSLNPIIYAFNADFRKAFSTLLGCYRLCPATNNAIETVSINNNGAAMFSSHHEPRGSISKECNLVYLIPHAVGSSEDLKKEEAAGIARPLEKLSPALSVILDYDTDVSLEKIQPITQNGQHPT
Chain of Receptor tyrosine-protein kinase erbB-2 (P04626 whole entry): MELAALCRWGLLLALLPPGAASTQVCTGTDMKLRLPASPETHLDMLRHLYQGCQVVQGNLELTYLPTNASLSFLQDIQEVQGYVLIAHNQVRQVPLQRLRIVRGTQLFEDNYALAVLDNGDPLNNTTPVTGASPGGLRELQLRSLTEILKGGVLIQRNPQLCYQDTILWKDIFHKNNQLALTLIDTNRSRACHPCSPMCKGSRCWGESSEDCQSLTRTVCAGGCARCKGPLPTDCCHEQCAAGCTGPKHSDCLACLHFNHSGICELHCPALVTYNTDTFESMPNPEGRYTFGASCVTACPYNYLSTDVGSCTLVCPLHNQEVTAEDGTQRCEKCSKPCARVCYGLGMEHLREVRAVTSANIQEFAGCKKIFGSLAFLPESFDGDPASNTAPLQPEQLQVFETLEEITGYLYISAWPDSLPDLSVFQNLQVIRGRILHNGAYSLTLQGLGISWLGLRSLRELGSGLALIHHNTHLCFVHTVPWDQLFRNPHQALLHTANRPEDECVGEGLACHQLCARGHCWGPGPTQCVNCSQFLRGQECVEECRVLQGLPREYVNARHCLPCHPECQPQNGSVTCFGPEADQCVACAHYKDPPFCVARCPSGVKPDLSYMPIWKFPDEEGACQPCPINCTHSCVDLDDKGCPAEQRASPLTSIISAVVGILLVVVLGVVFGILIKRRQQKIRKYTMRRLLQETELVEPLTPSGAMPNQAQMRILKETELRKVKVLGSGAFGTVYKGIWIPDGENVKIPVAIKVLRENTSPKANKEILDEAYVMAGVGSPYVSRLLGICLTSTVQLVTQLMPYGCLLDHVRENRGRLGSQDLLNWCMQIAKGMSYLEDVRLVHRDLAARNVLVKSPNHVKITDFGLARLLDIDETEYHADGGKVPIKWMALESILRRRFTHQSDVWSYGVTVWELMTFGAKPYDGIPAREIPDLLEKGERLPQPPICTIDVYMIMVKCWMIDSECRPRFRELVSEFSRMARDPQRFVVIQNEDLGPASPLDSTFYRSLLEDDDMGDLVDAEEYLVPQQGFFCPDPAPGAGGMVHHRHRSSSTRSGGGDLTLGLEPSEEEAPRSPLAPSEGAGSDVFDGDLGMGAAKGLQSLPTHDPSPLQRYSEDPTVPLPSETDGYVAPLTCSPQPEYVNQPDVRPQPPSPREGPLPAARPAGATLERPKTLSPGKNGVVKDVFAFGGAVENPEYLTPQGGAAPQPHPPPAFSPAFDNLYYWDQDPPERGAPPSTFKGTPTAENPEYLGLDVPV
Chain of Epidermal growth factor receptor (P00533 whole entry): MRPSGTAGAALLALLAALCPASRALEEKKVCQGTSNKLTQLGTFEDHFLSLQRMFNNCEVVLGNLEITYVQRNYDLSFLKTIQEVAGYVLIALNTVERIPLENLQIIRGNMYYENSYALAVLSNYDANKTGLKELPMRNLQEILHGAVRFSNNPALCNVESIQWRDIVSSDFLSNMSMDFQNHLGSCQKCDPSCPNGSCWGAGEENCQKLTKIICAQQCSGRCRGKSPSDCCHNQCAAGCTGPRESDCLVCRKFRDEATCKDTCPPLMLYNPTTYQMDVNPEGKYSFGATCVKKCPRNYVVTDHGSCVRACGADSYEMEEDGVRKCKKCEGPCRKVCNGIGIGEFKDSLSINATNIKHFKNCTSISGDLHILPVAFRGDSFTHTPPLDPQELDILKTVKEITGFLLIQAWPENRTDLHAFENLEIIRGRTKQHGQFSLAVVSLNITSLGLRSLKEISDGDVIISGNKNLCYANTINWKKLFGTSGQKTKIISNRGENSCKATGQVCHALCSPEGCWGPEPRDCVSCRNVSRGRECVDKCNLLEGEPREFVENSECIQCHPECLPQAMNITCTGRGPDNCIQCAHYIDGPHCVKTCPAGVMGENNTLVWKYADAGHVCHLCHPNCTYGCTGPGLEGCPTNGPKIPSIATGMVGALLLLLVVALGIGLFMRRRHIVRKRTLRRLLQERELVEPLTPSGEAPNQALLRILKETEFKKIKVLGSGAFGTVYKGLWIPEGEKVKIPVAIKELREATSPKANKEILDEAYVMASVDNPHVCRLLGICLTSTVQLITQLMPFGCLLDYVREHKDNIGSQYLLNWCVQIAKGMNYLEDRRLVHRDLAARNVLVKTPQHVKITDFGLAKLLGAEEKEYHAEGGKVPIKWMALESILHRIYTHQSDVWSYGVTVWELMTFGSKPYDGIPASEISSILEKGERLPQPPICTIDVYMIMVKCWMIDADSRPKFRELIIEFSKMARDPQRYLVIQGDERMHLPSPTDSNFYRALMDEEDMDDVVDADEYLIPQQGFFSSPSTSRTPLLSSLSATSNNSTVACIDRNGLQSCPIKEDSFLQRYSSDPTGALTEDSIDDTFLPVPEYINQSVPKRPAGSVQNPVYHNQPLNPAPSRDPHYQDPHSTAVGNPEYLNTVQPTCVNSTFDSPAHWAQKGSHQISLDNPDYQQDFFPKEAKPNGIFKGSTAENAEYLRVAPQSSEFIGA

A word on the AC50: it is the concentration giving half of the maximal activity seen. On to `CCOc1cc([C@@H](CS(C)(=O)=O)N2C(=O)c3cccc(NC(C)=O)c3C2=O)ccc1OC`, for which the AC50 (at D(1A) dopamine receptor; in experiment [1]; in experiment [2]; on Estrogen receptor; at Glucocorticoid receptor [3]; on Glucocorticoid receptor [4]) was more than 30 µM in each case. For the same molecule, the concentration at half-maximal activity (AC50) was more than 50 µM in experiment [5] and more than 30 µM on Acetylcholinesterase.

For `Cc1nnc(SCC2=C(C(=O)O)N3C(=O)[C@@H](NC(=O)Cn4cnnn4)[C@H]3SC2)s1` [CEFAZOLIN], the half-maximal activity concentration (AC50) (at D(1A) dopamine receptor; in experiment [1]; in experiment [2]; at Estrogen receptor; at Acetylcholinesterase) was more than 300 µM throughout.

As for `CC(C)(O/N=C(\C(=O)N[C@@H]1C(=O)N2C(C(=O)[O-])=C(C[n+]3ccccc3)CS[C@H]12)c1csc(N)n1)C(=O)O` [CEFTAZIDIME], the concentration at half-maximal activity (AC50) at D(1A) dopamine receptor is more than 300 µM; in experiment [1] it was more than 3 µM; in experiment [2], more than 300 µM; at Estrogen receptor it was 48 µM; at Glucocorticoid receptor [3], more than 300 µM; at Glucocorticoid receptor [4] it was more than 300 µM. On Acetylcholinesterase, the AC50 is more than 300 µM.

For the molecule `Clc1ccc(Cn2c(CN3CCCC3)nc3ccccc32)cc1` [CLEMIZOLE], the AC50 (on D(1A) dopamine receptor; in experiment [1]; in experiment [2]; on Glucocorticoid receptor [3]; at Glucocorticoid receptor [4]; on Acetylcholinesterase) was more than 30 µM throughout.

Turning to `Cc1onc(-c2c(F)cccc2Cl)c1C(=O)N[C@@H]1C(=O)N2[C@@H]1SC(C)(C)[C@@H]2C(=O)O` [FLOXACILLIN], the AC50 (at D(1A) dopamine receptor; in experiment [1]; in experiment [2]; at Glucocorticoid receptor [3]; on Glucocorticoid receptor [4]; on Acetylcholinesterase) was more than 30 µM each time.

`S=P(N1CC1)(N1CC1)N1CC1` [THIOTEPA]: the AC50 (at D(1A) dopamine receptor; in experiment [1]; in experiment [2]; at Estrogen receptor; on Glucocorticoid receptor [3]; on Glucocorticoid receptor [4]) was more than 30 µM throughout. The molecule also yielded an AC50 on Acetylcholinesterase of more than 30 µM.

Values taken from ChEMBL document CHEMBL5291721, “A preclinical secondary pharmacology resource illuminates target-adverse drug reaction associations of marketed drugs” (Nat Commun, 2023).
